# Article PMC9506414, “Novel 2,6,9-Trisubstituted Purines as Potent CDK Inhibitors Alleviating Trastuzumab-Resistance of HER2-Positive Breast Cancers” (Pharmaceuticals, 2022)
# Legend:
# [1] = In vitro liver microsomal stability; assay type: in vitro ADME; conditions: liver microsomes, pH 7.4, 30 m at 37 °C with NADPH regeneration system
# Method: Each compound (final 1 μM, duplicated) was added to each 0.1 M PBS solution (pH 7.4) containing liver microsome of three different species (human, dog, mouse). After a brief (5 m) incubation at 37 °C, the NADPH regeneration system (Promega Corp., Madison, WI, USA) was added, then the mixture was incubated at 37 °C for 30 m. The reaction was terminated by adding acetonitrile containing an internal standard (chlorpropamide), then the mixture was centrifuged at 15,000 rpm, 4 °C for 5 m. The supernatant solution was injected to LC/MS/MS system (TSQ Vantage Triple-Stage Quadrupole Mass Spectrometer, ThermoFisher Scientific, Waltham, MA, USA). The remaining substrates were analyzed with Xcalibur 4.4 s/w using an MRM (multiple reaction monitoring) quantitation mode.
# [2] = target: T1, CYP1A2 (Homo sapiens, UniProt P05177); assay: CYP inhibition; assay type: in vitro ADME
# T1 sequence (P05177 1-516): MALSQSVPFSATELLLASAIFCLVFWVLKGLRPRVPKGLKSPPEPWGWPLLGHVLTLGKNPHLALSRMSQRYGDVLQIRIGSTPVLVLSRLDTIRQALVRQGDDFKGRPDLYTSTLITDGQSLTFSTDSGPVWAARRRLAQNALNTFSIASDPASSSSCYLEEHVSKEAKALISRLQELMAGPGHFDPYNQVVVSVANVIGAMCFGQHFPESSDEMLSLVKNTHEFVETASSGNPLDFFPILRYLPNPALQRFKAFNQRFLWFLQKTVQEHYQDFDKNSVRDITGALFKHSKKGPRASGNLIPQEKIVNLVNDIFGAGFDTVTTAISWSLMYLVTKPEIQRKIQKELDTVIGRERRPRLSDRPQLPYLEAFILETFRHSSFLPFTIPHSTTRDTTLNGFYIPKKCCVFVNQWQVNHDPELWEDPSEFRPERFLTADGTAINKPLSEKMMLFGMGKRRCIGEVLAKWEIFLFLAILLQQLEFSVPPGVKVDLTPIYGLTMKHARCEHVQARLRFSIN
# Method: Table 6 In vitro liver metabolic stability and activity against CYPs of potent analogues. | column: CYP % Activity at 10 μM / 1A2
# [3] = target: CYP2D6 (Homo sapiens, UniProt P10635); assay: CYP inhibition; assay type: in vitro ADME
# Method: Table 6 In vitro liver metabolic stability and activity against CYPs of potent analogues. | column: CYP % Activity at 10 μM / 2D6
# [4] = target: T2, BLK (Homo sapiens, UniProt P51451); assay: Kinome-wide inhibition profiling; assay type: biochemical
# T2 construct: purchased Reaction Biology Corp
# Method: (§1) In vitro CDK12/cyclinK assays for all compounds and in vitro kinome-wide inhibition profiling of 30d at 10 μM were performed by a CRO company (Reaction Biology Corp., San Diego, CA, USA).
# [5] = target: T3, CAMK4 (Homo sapiens, UniProt Q16566); assay: Kinome-wide inhibition profiling; assay type: biochemical
# T3 construct: purchased Reaction Biology Corp
# Method: as §1
# [6] = target: T4, EPHA8 (Homo sapiens, UniProt P29322); assay: Kinome-wide inhibition profiling; assay type: biochemical
# T4 construct: purchased Reaction Biology Corp
# Method: as §1
# [7] = target: T5, FLT3 (Homo sapiens, UniProt P36888); assay: Kinome-wide inhibition profiling; assay type: biochemical
# T5 construct: purchased Reaction Biology Corp
# Method: as §1
# [8] = target: T6, GRK4 (Homo sapiens, UniProt P32298); assay: Kinome-wide inhibition profiling; assay type: biochemical
# T6 construct: purchased Reaction Biology Corp
# Method: as §1
# [9] = target: T7, LCK (Homo sapiens, UniProt P06239); assay: Kinome-wide inhibition profiling; assay type: biochemical
# T7 construct: purchased Reaction Biology Corp
# Method: as §1
# [10] = target: T8, LKB1 (Homo sapiens, UniProt Q15831); assay: Kinome-wide inhibition profiling; assay type: biochemical
# T8 construct: purchased Reaction Biology Corp
# Method: as §1
# [11] = target: T9, MEKK6 (Homo sapiens, UniProt O95382); assay: Kinome-wide inhibition profiling; assay type: biochemical
# T9 construct: purchased Reaction Biology Corp
# Method: as §1
# [12] = target: T10, MELK (Homo sapiens, UniProt Q14680); assay: Kinome-wide inhibition profiling; assay type: biochemical
# T10 construct: purchased Reaction Biology Corp
# Method: as §1
# [13] = target: T11, MST4 (Homo sapiens, UniProt Q9P289); assay: Kinome-wide inhibition profiling; assay type: biochemical
# T11 construct: purchased Reaction Biology Corp
# Method: as §1
# [14] = target: T12, NEK7 (Homo sapiens, UniProt Q8TDX7); assay: Kinome-wide inhibition profiling; assay type: biochemical
# T12 construct: purchased Reaction Biology Corp
# Method: as §1
# [15] = target: T13, PKA (Homo sapiens, UniProt P17612); assay: Kinome-wide inhibition profiling; assay type: biochemical
# T13 construct: purchased Reaction Biology Corp
# Method: as §1
# [16] = target: T14, PRKD3 (Homo sapiens, UniProt O94806); assay: Kinome-wide inhibition profiling; assay type: biochemical
# T14 construct: purchased Reaction Biology Corp
# Method: as §1
# [17] = target: T15, RSK1 (Homo sapiens, UniProt Q15418); assay: Kinome-wide inhibition profiling; assay type: biochemical
# T15 construct: purchased Reaction Biology Corp
# Method: as §1
# [18] = target: T16, TGFBR2 (Homo sapiens, UniProt P37173); assay: Kinome-wide inhibition profiling; assay type: biochemical
# T16 construct: purchased Reaction Biology Corp
# Method: as §1
# [19] = target: T17, TRKA (Homo sapiens, UniProt P04629); assay: Kinome-wide inhibition profiling; assay type: biochemical
# T17 construct: purchased Reaction Biology Corp
# Method: as §1
# [20] = target: T18, TTBK1 (Homo sapiens, UniProt Q5TCY1); assay: Kinome-wide inhibition profiling; assay type: biochemical
# T18 construct: purchased Reaction Biology Corp
# Method: as §1
# [21] = target: T19, YES (Homo sapiens, UniProt P07947); assay: Kinome-wide inhibition profiling; assay type: biochemical
# T19 construct: purchased Reaction Biology Corp
# Method: as §1
# [22] = target: T20, ZAP70 (Homo sapiens, UniProt P43403); assay: Kinome-wide inhibition profiling; assay type: biochemical
# T20 construct: purchased Reaction Biology Corp
# Method: as §1
# [23] = target: CDK12/CyclinK (Homo sapiens, UniProt Q9NYV4); assay: Kinome-wide inhibition profiling; assay type: biochemical; set-up: purchased Reaction Biology Corp
# Method: as §1
# [24] = tested on: CDC2L5; set-up: method as in HMS LINCS database; conditions: 10 μM, ref HMS LINCS database; cited from earlier work
# [25] = target: T21, TLK2 (Homo sapiens, UniProt Q86UE8); set-up: method as in HMS LINCS database; conditions: 10 μM, ref HMS LINCS database; cited from earlier work
# T21 construct: purchased Reaction Biology Corp
# [26] = target: T22, GSK3a (Homo sapiens, UniProt P49840); set-up: method as in HMS LINCS database; conditions: 10 μM, ref HMS LINCS database; cited from earlier work
# T22 construct: purchased Reaction Biology Corp
# [27] = target: T23, DYRK1A (Homo sapiens, UniProt Q13627); set-up: method as in HMS LINCS database; conditions: 10 μM, ref HMS LINCS database; cited from earlier work
# T23 construct: purchased Reaction Biology Corp
# [28] = target: T24, PAK3 (Homo sapiens, UniProt O75914); set-up: method as in HMS LINCS database; conditions: 10 μM, ref HMS LINCS database; cited from earlier work
# T24 construct: purchased Reaction Biology Corp
# T8 sequence (Q15831 whole entry): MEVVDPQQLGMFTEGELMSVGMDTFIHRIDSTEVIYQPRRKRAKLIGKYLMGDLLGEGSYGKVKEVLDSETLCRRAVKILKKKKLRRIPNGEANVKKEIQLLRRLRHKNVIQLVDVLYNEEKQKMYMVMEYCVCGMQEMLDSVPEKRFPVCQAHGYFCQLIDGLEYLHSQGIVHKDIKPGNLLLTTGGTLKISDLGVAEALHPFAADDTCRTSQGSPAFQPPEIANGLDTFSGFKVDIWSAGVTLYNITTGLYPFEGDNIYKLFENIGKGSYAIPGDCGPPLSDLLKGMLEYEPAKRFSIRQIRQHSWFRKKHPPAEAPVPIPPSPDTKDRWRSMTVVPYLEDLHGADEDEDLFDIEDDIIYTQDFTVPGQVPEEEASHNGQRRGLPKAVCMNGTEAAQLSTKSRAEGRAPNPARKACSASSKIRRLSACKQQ
# T8 sequence (Q7RTN6 whole entry partner): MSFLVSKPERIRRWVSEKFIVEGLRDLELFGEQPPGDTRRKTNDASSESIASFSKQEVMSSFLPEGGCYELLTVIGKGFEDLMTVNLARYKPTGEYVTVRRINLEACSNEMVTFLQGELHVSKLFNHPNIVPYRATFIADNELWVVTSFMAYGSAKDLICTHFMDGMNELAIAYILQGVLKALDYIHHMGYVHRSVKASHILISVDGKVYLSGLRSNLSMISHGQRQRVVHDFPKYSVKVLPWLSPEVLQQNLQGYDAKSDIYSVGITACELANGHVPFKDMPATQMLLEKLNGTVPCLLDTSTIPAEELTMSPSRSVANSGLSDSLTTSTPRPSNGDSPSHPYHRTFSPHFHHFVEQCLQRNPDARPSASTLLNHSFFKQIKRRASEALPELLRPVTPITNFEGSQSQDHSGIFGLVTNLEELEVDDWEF
# T8 sequence (Q9Y376 whole entry partner): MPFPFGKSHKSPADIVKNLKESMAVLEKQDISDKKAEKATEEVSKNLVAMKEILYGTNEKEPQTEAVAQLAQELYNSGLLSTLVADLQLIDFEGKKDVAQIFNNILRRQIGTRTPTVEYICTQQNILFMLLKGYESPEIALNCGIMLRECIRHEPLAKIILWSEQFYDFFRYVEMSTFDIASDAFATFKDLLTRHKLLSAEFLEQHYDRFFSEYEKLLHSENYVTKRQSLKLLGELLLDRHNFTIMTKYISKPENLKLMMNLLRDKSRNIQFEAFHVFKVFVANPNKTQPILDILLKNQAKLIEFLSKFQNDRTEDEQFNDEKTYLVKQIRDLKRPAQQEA
# CYP2D6, sequence (P10635 whole entry): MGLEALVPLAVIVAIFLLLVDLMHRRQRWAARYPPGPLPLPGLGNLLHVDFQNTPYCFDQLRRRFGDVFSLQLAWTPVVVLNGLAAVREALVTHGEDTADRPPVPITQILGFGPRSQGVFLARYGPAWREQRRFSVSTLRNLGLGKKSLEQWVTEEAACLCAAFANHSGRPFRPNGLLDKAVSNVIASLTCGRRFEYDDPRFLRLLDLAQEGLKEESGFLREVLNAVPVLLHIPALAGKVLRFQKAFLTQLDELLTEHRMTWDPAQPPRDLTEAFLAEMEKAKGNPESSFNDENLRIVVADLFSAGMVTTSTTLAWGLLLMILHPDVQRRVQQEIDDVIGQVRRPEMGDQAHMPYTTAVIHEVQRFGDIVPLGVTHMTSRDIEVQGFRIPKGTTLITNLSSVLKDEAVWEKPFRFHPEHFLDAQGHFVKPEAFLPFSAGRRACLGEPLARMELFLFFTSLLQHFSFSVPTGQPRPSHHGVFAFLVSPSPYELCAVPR
# CDK12/CyclinK, sequence (Q9NYV4 whole entry): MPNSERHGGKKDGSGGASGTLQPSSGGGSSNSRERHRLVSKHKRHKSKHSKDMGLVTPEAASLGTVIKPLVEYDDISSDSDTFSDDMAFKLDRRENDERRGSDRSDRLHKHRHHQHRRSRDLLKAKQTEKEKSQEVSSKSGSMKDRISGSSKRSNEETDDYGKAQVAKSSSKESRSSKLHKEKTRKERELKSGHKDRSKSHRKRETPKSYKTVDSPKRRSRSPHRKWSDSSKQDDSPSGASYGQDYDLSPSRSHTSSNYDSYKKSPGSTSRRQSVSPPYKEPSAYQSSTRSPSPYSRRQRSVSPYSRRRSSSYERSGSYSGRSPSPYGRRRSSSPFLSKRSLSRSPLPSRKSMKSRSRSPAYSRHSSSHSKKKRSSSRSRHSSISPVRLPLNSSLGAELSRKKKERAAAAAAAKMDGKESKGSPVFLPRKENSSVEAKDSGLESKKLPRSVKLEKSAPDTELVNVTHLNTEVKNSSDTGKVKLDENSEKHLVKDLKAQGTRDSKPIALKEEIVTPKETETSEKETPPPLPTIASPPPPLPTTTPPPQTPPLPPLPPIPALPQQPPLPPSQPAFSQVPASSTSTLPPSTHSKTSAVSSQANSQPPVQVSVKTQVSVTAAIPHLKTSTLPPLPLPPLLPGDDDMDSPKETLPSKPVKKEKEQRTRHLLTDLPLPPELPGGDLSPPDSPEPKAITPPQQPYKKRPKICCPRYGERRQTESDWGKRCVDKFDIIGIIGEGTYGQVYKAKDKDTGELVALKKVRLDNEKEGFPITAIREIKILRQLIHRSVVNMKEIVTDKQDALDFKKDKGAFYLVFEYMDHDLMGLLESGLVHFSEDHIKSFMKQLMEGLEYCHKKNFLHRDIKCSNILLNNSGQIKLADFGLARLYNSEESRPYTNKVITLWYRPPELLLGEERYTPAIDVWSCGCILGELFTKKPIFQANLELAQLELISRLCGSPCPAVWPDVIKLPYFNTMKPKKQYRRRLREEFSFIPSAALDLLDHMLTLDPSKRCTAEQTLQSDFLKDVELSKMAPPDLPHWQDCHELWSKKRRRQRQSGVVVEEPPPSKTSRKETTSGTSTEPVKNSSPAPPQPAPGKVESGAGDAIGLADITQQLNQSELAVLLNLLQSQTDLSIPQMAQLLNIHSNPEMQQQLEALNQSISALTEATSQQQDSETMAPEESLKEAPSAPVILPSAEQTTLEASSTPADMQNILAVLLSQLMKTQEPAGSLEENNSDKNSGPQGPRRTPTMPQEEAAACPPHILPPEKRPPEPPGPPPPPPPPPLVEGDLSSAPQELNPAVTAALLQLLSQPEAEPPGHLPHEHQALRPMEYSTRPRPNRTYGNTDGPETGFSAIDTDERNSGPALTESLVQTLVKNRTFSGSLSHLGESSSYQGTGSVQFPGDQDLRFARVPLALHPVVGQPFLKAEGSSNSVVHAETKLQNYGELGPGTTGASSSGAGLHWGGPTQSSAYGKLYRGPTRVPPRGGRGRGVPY
# CDK12/CyclinK, sequence (O75909 whole entry partner): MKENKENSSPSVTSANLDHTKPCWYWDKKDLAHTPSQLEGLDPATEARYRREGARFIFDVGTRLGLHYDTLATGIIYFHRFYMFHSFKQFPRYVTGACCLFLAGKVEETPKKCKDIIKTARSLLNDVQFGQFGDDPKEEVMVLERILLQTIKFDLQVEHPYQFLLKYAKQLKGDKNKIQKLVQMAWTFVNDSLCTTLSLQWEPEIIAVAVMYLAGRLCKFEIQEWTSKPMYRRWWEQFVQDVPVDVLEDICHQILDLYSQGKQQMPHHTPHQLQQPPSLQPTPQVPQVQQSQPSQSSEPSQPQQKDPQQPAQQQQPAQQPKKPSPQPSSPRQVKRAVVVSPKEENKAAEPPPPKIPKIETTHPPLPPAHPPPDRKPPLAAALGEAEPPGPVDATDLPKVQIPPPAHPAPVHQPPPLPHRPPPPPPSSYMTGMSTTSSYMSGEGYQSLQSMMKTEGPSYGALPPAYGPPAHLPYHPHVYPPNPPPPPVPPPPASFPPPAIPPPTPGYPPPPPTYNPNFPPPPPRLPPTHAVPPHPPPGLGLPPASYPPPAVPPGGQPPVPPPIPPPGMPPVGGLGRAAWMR
# T14 sequence (O94806 whole entry): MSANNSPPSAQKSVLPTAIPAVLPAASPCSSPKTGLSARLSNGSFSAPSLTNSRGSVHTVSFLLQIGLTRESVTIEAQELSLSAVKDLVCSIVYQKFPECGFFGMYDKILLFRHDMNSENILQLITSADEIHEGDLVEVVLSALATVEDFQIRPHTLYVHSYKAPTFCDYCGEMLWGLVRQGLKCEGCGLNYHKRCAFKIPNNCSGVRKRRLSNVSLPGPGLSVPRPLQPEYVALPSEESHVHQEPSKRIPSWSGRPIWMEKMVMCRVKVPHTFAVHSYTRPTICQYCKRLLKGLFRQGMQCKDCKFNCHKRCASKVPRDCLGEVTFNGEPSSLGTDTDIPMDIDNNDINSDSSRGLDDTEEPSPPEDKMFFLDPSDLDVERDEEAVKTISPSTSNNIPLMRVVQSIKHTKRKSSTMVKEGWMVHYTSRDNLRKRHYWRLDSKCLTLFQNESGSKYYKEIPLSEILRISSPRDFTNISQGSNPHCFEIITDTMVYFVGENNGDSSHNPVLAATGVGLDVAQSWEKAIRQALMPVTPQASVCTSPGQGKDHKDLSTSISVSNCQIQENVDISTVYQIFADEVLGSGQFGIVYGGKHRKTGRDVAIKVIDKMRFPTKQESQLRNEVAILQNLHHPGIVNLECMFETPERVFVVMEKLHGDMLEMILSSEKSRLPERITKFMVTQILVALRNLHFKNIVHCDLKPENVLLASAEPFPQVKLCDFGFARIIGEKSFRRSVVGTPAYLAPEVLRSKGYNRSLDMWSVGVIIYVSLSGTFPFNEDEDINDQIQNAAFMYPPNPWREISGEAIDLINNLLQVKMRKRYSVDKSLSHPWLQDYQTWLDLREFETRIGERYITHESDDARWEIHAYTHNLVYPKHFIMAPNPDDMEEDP
# T12 sequence (Q8TDX7 whole entry): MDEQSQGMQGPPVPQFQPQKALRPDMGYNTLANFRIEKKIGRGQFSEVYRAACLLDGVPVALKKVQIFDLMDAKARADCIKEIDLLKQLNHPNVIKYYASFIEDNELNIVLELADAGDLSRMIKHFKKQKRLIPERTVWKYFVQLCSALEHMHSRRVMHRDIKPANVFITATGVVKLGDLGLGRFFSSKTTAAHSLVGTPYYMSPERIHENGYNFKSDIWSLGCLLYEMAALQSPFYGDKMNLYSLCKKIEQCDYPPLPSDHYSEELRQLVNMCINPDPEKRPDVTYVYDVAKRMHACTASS
structure (smiles),measurement,setting,value
"CCn1cnc2c(NCc3ccc(-c4ccccn4)nc3)nc(-c3ccc(N)nc3)nc21 [Compound 30d, N-([2,2′-Bipyridin]-5-ylmethyl)-2-(6-aminopyridin-3-yl)-9-ethyl-9H-purin-6-amine]","remaining at 30 min, 1 μM",[1]; dog,46.2%
same,"remaining at 30 min, 1 μM",[1]; human,64.8%
same,"remaining at 30 min, 1 μM",[1]; mouse,49.9%
same,CYP % Activity at 10 μM 1A2,[2],74.7%
same,CYP % Activity at 10 μM 2D6,[3],81.0%
same,remaining activity at 10 µM,[4],66.8%
same,remaining activity at 10 µM,[5],95.2%
same,remaining activity at 10 µM,[6],94%
same,remaining activity at 10 µM,[7],40.2%
same,remaining activity at 10 µM,[8],88.3%
same,remaining activity at 10 µM,[9],83.6%
same,inhibition at 10 µM,[10],> 95%
same,remaining activity at 10 µM,[10],0.1%
same,remaining activity at 10 µM,[11],109%
same,remaining activity at 10 µM,[12],21.2%
same,remaining activity at 10 µM,[13],45.8%
same,remaining activity at 10 µM,[14],93.2%
same,remaining activity at 10 µM,[15],93.1%
same,remaining activity at 10 µM,[16],54.3%
same,remaining activity at 10 µM,[17],59.1%
same,remaining activity at 10 µM,[18],94.5%
same,remaining activity at 10 µM,[19],28.7%
same,remaining activity at 10 µM,[20],108%
same,remaining activity at 10 µM,[21],20.6%
same,remaining activity at 10 µM,[22],100%
same,inhibition at 10 µM,[23],> 95%
same,remaining activity at 10 µM,[23],1.1%
"CCn1cnc2c(NCc3ccc(-c4ccccn4)nc3)nc(-c3cnc(N)nc3)nc21 [Compound 30e, N-([2,2′-Bipyridin]-5-ylmethyl)-2-(2-aminopyrimidin-5-yl)-9-ethyl-9H-purin-6-amine]","remaining at 30 min, 1 μM",[1]; dog,67.6%
same,"remaining at 30 min, 1 μM",[1]; human,100%
same,"remaining at 30 min, 1 μM",[1]; mouse,85%
same,CYP % Activity at 10 μM 1A2,[2],87.6%
same,CYP % Activity at 10 μM 2D6,[3],92.1%
CCc1cnn2c(NCc3ccc[n+]([O-])c3)cc(N3CCCC[C@H]3CCO)nc12 [Dinaciclib],% control,[24],0.3%
same,% control,[25],0.5%
same,% control,[26],3.0%
same,% control,[27],6.0%
same,% control,[28],7.8%
